# Source: ChEMBL document CHEMBL1201862, “PubChem BioAssay data set” (2004)
#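 Values below derive from 48-hour exposures of cells grown in 96-well plates, with endpoints linearly interpolated between the two concentrations bracketing the appropriate inhibition level. GI50: concentration for 50% inhibition of growth.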 Activity calls are given as the source filed them. Cut-off read from the data, not from the text of the source: active = GI50 up to about 1.1 µM and inactive = higher.
# How the values were obtained:
# Experiment in all cases: NCI anticancer screen, dose series, 48 h
# 786-0 = system: 786-0
# A498 = system: A498
# A549 = system: A549
# ACHN = system: ACHN
# CAKI-1 = system: CAKI-1
# COLO 205 = system: COLO 205
# DLD-1 = system: DLD-1
# DMS-114 = system: DMS-114
# DMS-273 = system: DMS-273
# EKVX = system: EKVX
# HCC 2998 = system: HCC 2998
# HCT-116 = system: HCT-116
# HCT-15 = system: HCT-15
# HL-60 = system: HL-60
# HT-29 = system: HT-29
# IGROV-1 = system: IGROV-1
# K562 = system: K562
# KM-20L2 = system: KM-20L2
# KM12 = system: KM12
# LOX IMVI = system: LOX IMVI
# LXFL 529 = system: LXFL 529
# M14 = system: M14
# M19-MEL = system: M19-MEL
# MOLT-4 = system: MOLT-4
# NCI-H226 = system: NCI-H226
# NCI-H23 = system: NCI-H23
# NCI-H460 = system: NCI-H460
# NCI-H522 = system: NCI-H522
# OVCAR-3 = system: OVCAR-3
# OVCAR-4 = system: OVCAR-4
# OVCAR-5 = system: OVCAR-5
# OVCAR-8 = system: OVCAR-8
# RPMI-8226 = system: RPMI-8226
# SF-268 = system: SF-268
# SF-295 = system: SF-295
# SF-539 = system: SF-539
# SK-MEL-28 = system: SK-MEL-28
# SK-MEL-2 = system: SK-MEL-2
# SK-MEL-5 = system: SK-MEL-5
# SK-OV-3 = system: SK-OV-3
# SN12C = system: SN12C
# SNB-19 = system: SNB-19
# SNB-75 = system: SNB-75
# SNB-78 = system: SNB-78
# SR = system: SR
# SW-620 = system: SW-620
# TK-10 = system: TK-10
# U-251 = system: U-251
# UACC-257 = system: UACC-257
# UACC-62 = system: UACC-62
# UO-31 = system: UO-31
# CCRF-CEM = system: CCRF-CEM
# HOP-62 = system: HOP-62
# HOP-92 = system: HOP-92
# Malme-3M = system: Malme-3M
# RXF 393 = system: RXF 393
structure (smiles),measurement,setting,value
CCCCCCCCCCCCCCCCNCCCN(C)CCCN,GI50,786-0,15.2 µM (inactive)
same,GI50,A498,18.2 µM (inactive)
same,GI50,A549,16.7 µM (inactive)
same,GI50,ACHN,19.4 µM (inactive)
same,GI50,CAKI-1,18.1 µM (inactive)
same,GI50,COLO 205,22.1 µM (inactive)
same,GI50,DLD-1,16.8 µM (inactive)
same,GI50,DMS-114,16.6 µM (inactive)
same,GI50,DMS-273,17.8 µM (inactive)
same,GI50,EKVX,20.5 µM (inactive)
same,GI50,HCC 2998,18.3 µM (inactive)
same,GI50,HCT-116,18.7 µM (inactive)
same,GI50,HCT-15,17.2 µM
same,GI50,HL-60,18.6 µM (inactive)
same,GI50,HT-29,19.3 µM (inactive)
same,GI50,IGROV-1,20.3 µM (inactive)
same,GI50,K562,20 µM (inactive)
same,GI50,KM-20L2,18.2 µM (inactive)
same,GI50,KM12,18.4 µM (inactive)
same,GI50,LOX IMVI,19.9 µM (inactive)
same,GI50,LXFL 529,18.6 µM (inactive)
same,GI50,M14,17.1 µM (inactive)
same,GI50,M19-MEL,19.9 µM (inactive)
same,GI50,MOLT-4,28.8 µM (inactive)
same,GI50,NCI-H226,19.8 µM (inactive)
same,GI50,NCI-H23,18.9 µM (inactive)
same,GI50,NCI-H460,17.7 µM (inactive)
same,GI50,NCI-H522,17.3 µM (inactive)
same,GI50,OVCAR-3,19.5 µM (inactive)
same,GI50,OVCAR-4,18.8 µM (inactive)
same,GI50,OVCAR-5,16.4 µM (inactive)
same,GI50,OVCAR-8,20.7 µM (inactive)
same,GI50,RPMI-8226,20.2 µM (inactive)
same,GI50,SF-268,18.7 µM (inactive)
same,GI50,SF-295,17.9 µM (inactive)
same,GI50,SF-539,17.8 µM (inactive)
same,GI50,SK-MEL-28,13.4 µM (inactive)
same,GI50,SK-MEL-2,20.8 µM (inactive)
same,GI50,SK-MEL-5,16 µM (inactive)
same,GI50,SK-OV-3,17.3 µM (inactive)
same,GI50,SN12C,20 µM (inactive)
same,GI50,SNB-19,17.1 µM (inactive)
same,GI50,SNB-75,18.2 µM (inactive)
same,GI50,SNB-78,16.9 µM (inactive)
same,GI50,SR,21 µM (inactive)
same,GI50,SW-620,18.5 µM (inactive)
same,GI50,TK-10,15 µM (inactive)
same,GI50,U-251,17.3 µM (inactive)
same,GI50,UACC-257,22 µM (inactive)
same,GI50,UACC-62,17.3 µM (inactive)
same,GI50,UO-31,17.3 µM (inactive)
CN1CCN(CCNc2ccc(CO)c3sc4ccccc4c(=O)c23)CC1,GI50,786-0,5.87 µM (inactive)
same,GI50,A549,10.5 µM (inactive)
same,GI50,ACHN,13.8 µM (inactive)
same,GI50,CAKI-1,11.9 µM (inactive)
same,GI50,CCRF-CEM,4.34 µM (inactive)
same,GI50,COLO 205,8.77 µM (inactive)
same,GI50,DLD-1,11.7 µM (inactive)
same,GI50,DMS-114,9.57 µM (inactive)
same,GI50,DMS-273,3.21 µM (inactive)
same,GI50,HCC 2998,6.87 µM (inactive)
same,GI50,HCT-116,5.69 µM (inactive)
same,GI50,HCT-15,6.32 µM
same,GI50,HL-60,8.93 µM (inactive)
same,GI50,HOP-62,5.06 µM (inactive)
same,GI50,HOP-92,13.4 µM (inactive)
same,GI50,HT-29,4.15 µM (inactive)
same,GI50,IGROV-1,11.1 µM (inactive)
same,GI50,K562,3.84 µM (inactive)
same,GI50,KM-20L2,4.21 µM (inactive)
same,GI50,KM12,10.9 µM (inactive)
same,GI50,LXFL 529,9.71 µM (inactive)
same,GI50,M14,14.1 µM (inactive)
same,GI50,M19-MEL,12.2 µM (inactive)
same,GI50,MOLT-4,3.15 µM (inactive)
same,GI50,Malme-3M,11.5 µM (inactive)
same,GI50,NCI-H226,13.2 µM (inactive)
same,GI50,NCI-H23,12.9 µM (inactive)
same,GI50,NCI-H460,4.34 µM (inactive)
same,GI50,NCI-H522,3.38 µM (inactive)
same,GI50,OVCAR-3,8.18 µM (inactive)
same,GI50,OVCAR-4,10.5 µM (inactive)
same,GI50,OVCAR-5,16.6 µM (inactive)
same,GI50,OVCAR-8,9.38 µM (inactive)
same,GI50,RPMI-8226,10.9 µM (inactive)
same,GI50,SF-268,11.6 µM (inactive)
same,GI50,SF-295,5.93 µM (inactive)
same,GI50,SF-539,13.2 µM (inactive)
same,GI50,SK-MEL-28,15.5 µM (inactive)
same,GI50,SK-MEL-2,15 µM (inactive)
same,GI50,SK-MEL-5,12.7 µM (inactive)
same,GI50,SNB-19,21 µM (inactive)
same,GI50,SNB-75,9.48 µM (inactive)
same,GI50,SR,2.51 µM (inactive)
same,GI50,SW-620,4.18 µM (inactive)
same,GI50,TK-10,18.3 µM (inactive)
same,GI50,U-251,3.11 µM (inactive)
same,GI50,UACC-257,15.2 µM (inactive)
same,GI50,UACC-62,13 µM (inactive)
same,GI50,UO-31,14.7 µM (inactive)
NC(=O)c1ncn(C2OC(CO)C(O)C2O)c1NC(=S)NC(=O)c1ccccc1 (stereo not given),GI50,786-0,> 100 µM (inactive)
same,GI50,A498,> 100 µM (inactive)
same,GI50,A549,> 100 µM (inactive)
same,GI50,ACHN,> 100 µM (inactive)
same,GI50,CAKI-1,> 100 µM (inactive)
same,GI50,CCRF-CEM,> 100 µM (inactive)
same,GI50,COLO 205,> 100 µM (inactive)
same,GI50,DLD-1,> 100 µM (inactive)
same,GI50,DMS-114,> 100 µM (inactive)
same,GI50,DMS-273,> 100 µM (inactive)
same,GI50,EKVX,> 100 µM (inactive)
same,GI50,HCC 2998,> 100 µM (inactive)
same,GI50,HCT-116,> 100 µM (inactive)
same,GI50,HL-60,> 100 µM (inactive)
same,GI50,HOP-62,> 100 µM (inactive)
same,GI50,HOP-92,> 100 µM (inactive)
same,GI50,HT-29,> 100 µM (inactive)
same,GI50,IGROV-1,> 100 µM (inactive)
same,GI50,K562,> 100 µM (inactive)
same,GI50,KM-20L2,> 100 µM (inactive)
same,GI50,KM12,> 100 µM (inactive)
same,GI50,LOX IMVI,> 100 µM (inactive)
same,GI50,LXFL 529,> 100 µM (inactive)
same,GI50,M14,> 100 µM (inactive)
same,GI50,M19-MEL,> 100 µM (inactive)
same,GI50,MOLT-4,> 100 µM (inactive)
same,GI50,Malme-3M,> 100 µM (inactive)
same,GI50,NCI-H226,> 100 µM (inactive)
same,GI50,NCI-H23,> 100 µM (inactive)
same,GI50,NCI-H460,> 100 µM (inactive)
same,GI50,NCI-H522,> 100 µM (inactive)
same,GI50,OVCAR-3,> 100 µM (inactive)
same,GI50,OVCAR-4,> 100 µM (inactive)
same,GI50,OVCAR-5,> 100 µM (inactive)
same,GI50,OVCAR-8,> 100 µM (inactive)
same,GI50,RPMI-8226,> 100 µM (inactive)
same,GI50,RXF 393,> 100 µM (inactive)
same,GI50,SF-268,> 100 µM (inactive)
same,GI50,SF-295,> 100 µM (inactive)
same,GI50,SF-539,> 100 µM (inactive)
same,GI50,SK-MEL-28,> 100 µM (inactive)
same,GI50,SK-MEL-2,> 100 µM (inactive)
same,GI50,SK-MEL-5,> 100 µM (inactive)
same,GI50,SK-OV-3,> 100 µM (inactive)
same,GI50,SN12C,> 100 µM (inactive)
same,GI50,SNB-19,> 100 µM (inactive)
same,GI50,SNB-75,> 100 µM (inactive)
same,GI50,SNB-78,> 100 µM (inactive)
same,GI50,SR,> 100 µM (inactive)
same,GI50,SW-620,> 100 µM (inactive)
same,GI50,TK-10,> 100 µM (inactive)
same,GI50,U-251,> 100 µM (inactive)
same,GI50,UACC-257,> 100 µM (inactive)
same,GI50,UACC-62,> 100 µM (inactive)
same,GI50,UO-31,> 100 µM (inactive)
